Series [1] addresses human A1 adenosine receptor (Homo sapiens, UniProt P30542). The following applies: cited from earlier work.
In series [2] the target is T1, human A2a receptor subtype (Homo sapiens, UniProt P29274).
T1 construct: expressed in transfected cells; host or cells: HEK-293 (Cadus clone #5)
In words: Adenosine 2a receptor subtype competition radioligand binding, [3H]CGS-21680, HEK293 membranes. The following applies: Table 13, concentration not given.

For series [3], the target named is T2, human A1 receptor subtype (Homo sapiens, UniProt P30542).
T2 sequence (P30542 1-326): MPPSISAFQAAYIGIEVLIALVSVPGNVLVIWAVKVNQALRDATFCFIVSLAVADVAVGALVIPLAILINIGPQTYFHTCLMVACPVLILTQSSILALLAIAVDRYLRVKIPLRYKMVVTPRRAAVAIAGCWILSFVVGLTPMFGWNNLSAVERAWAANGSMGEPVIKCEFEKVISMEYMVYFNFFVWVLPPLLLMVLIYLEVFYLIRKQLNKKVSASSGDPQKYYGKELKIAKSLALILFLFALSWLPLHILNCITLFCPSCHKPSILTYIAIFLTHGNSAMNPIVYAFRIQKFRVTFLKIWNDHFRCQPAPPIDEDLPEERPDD
The following applies: Table 13, concentration not given.

In series [4] the target is T3, human A3 receptor subtype (Homo sapiens, UniProt P0DMS8).
T3 construct: expressed in transfected cells; host or cells: HEK293
T3 sequence (P0DMS8 1-318): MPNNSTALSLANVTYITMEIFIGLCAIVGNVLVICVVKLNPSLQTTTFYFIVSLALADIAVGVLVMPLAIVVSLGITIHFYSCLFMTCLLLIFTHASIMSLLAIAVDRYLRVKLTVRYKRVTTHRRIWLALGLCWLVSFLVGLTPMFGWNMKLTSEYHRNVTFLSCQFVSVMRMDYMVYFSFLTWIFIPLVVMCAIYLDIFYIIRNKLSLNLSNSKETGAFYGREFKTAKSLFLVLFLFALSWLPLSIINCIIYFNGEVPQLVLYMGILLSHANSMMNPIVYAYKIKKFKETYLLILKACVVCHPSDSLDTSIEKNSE
In words: Adenosine 3 receptor competition radioligand binding, [125I]AB-MECA, HEK293 membranes. The settings on record: compared with compound 1308.

This is an account of results in patent US7160890B2, “Compounds specific to adenosine A3 receptor and uses thereof” (OSI Pharmaceuticals, Inc., priority 1999, dated 2007).

For orientation: melting point means the temperature, or range, at which the solid turns liquid.

T1 sequence (P29274 whole entry): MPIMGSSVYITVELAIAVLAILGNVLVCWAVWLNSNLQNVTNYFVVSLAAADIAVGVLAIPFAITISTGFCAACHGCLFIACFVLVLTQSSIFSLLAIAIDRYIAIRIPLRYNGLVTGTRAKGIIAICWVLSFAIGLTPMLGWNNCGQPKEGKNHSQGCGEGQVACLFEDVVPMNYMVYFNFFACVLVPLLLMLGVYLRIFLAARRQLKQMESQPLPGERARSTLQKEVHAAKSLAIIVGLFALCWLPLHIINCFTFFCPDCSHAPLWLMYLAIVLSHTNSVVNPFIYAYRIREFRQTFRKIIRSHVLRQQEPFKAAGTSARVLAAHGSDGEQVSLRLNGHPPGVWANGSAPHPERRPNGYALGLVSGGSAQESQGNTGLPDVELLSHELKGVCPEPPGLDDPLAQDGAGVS

As to `CC(Cc1ccccc1)Nc1ncnc2c1ncn2[C@@H]1O[C@H](CO)[C@@H](O)[C@H]1O` (single isomer, unassigned; (-)) [PIA, (−)-N6-(2-phenylisopropyl)-adenosine], in series [1], the reported affinity result was “approximately 50 nM”. With `CNC(=O)NCCCNc1nc(-c2ccccc2)nc2[nH]c(C)c(C)c12` [Compound 1310], the “Binding A2a, value given in %” value in series [2] turned out to be 76%. As to `Cc1[nH]c2nc(-c3ccccc3)nc(NCCNC(=O)C3(N)CC3)c2c1C` [Compound 1313], the “Binding A1, value printed in %” value in series [3] was 30%. As to `c1ccc(-c2nc(NCCc3cnc[nH]3)c3cc[nH]c3n2)cc1` [Compound 1720, [2-(3H-Imidazol-4-yl)-ethyl]-(2-phenyl-7H-pyrrolo[2,3-d]pyrimidin-4-yl)-amine], the melting point was in the range of 234 to 235 °C. Also, in series [4], the “A3 receptor binding affinity relative to reference compound 1308” value is listed as “greater than 10 times”.
